Results published in patent publication US20090155828A1, “METHODS OF DETECTING PROSTATE CANCER” (The Burnham Institute for Medical Research, priority 2001, published 2009).
“Also recorded” adds a separate entry of the source.

Tests used:
tumor cells in culture = conditions: cited from earlier work; for Apoptosis of tumor cells: tumor / cancer cells in culture
tumor growth = conditions: cited from earlier work
LNCaP cells = assay: Androgen effects on LNCaP cell proliferation; assay type: cell-based, human; conditions: six days
Method: LNCaP cell proliferation was measured in the presence of either 0.1 nM or 100 nM DHT. Cells were plated in 24 well plates in RPMI 1640 with no phenol red and supplemented with charcoal stripped FBS and allowed to adhere overnight. The following day media was replaced, with or without DHT, and cells were grown for six days with media change every second day. Cells were counted using a hemocytometer.
In order to assess the effects of androgen (DHT) treatment on cell proliferation, LNCaP cells were plated in either 150 mm dishes (Falcon) or in 12 well tissue culture plates (Falcon) in complete medium. After 24 hr, the medium was replaced with RPMI containing no phenol red and supplemented with 10% charcoal stripped fetal bovine serum and the appropriate concentration of DHT. The medium was replaced every 48 hr for six days. At the indicated time points, the cells were removed by treatment with trypsin-EDTA and counted with a hemocytometer.
(§1) It is well established that androgen (DHT) specifically, promotes proliferation of LNCaP cells in vitro. […] LNCaP cell proliferation was measured in the presence of either 0.1 nM or 100 nM DHT. […] Cells were counted using a hemocytometer. On day six, the aggregate serine hydrolase activity profiles were also measured. […] Specific labeling was assessed by comparison to a preheated control.

[1] = tested on: fatty acid synthase (FAS); assay: Fatty acid synthase activity in DHT treated LNCaP cells, fp-PEG-Tamra profile; assay type: cell-based, human; conditions: six days
Method: (§2) Serine hydrolase activity profiles of the prostate cell lines were measured using the labeled fluorophosphonate probe fp-PEG-Tamra. Briefly, 40 μg of either the soluble or insoluble fractions were treated with 2 μM fp-PEG-Tamra for 1 hr at RT. The labeling reactions were stopped by the addition of Laemmli buffer followed by boiling for 5 min. As a control for non-specific reaction of the probe, a duplicate sample was boiled for 10 min prior to labeling with fp-PEG-Tamra. The labeled samples were resolved by 10% SDS-PAGE and visualized by scanning with a laser at 605 nm.
as §1, with “vitro. While the direct cause for this is not completely understood, it is clear that changes in gene and protein levels are associated with proliferation. As such, it was hypothesized that androgen treatment of LNCaP cells would change the aggregate activity profile.” for “vitro.”

[2] = tested on: prolyl endopeptidase (PEP); assay: Prolyl endopeptidase activity in DHT treated LNCaP cells, fp-PEG-Tamra profile; assay type: cell-based, human; conditions: six days
Method: as §2
as §1, with “vitro. While the direct cause for this is not completely understood, it is clear that changes in gene and protein levels are associated with proliferation. As such, it was hypothesized that androgen treatment of LNCaP cells would change the aggregate activity profile.” for “vitro.”

PSA = PSA activity in DHT treated LNCaP cells, fp-PEG-Tamra profile; assay type: cell-based, human; conditions: six days
Method: as §2
as §1, with “vitro. While the direct cause for this is not completely understood, it is clear that changes in gene and protein levels are associated with proliferation. As such, it was hypothesized that androgen treatment of LNCaP cells would change the aggregate activity profile.” for “vitro.”

[3] = tested on: N-acyl peptide hydrolase (NAPH); assay: N-acyl peptide hydrolase activity in DHT treated LNCaP cells, fp-PEG-Tamra profile; assay type: cell-based, human; conditions: 100 nM DHT, six days
Method: as §2
as §1, with “vitro. While the direct cause for this is not completely understood, it is clear that changes in gene and protein levels are associated with proliferation. As such, it was hypothesized that androgen treatment of LNCaP cells would change the aggregate activity profile.” for “vitro.”

PSA mRNA = PSA mRNA level in DHT treated LNCaP cells by real time PCR; assay type: cell-based, human
Method: (§3) The serine hydrolase activity levels in the four prostate cell lines, or the change in serine hydrolase activity with DHT treatment, as assessed by fp-PEG-Tamra, was compared to the mRNA level of the cognate enzymes. Total RNA was isolated with Trizol (Life Technologies) from LNCaP, LNCaP treated with DHT, DU-145, PC-3 or PrEC cell lines. Reverse transcription was performed with Superscript II. Real time PCR was performed using the Roche SYBER Green DNA kit and a Roche LightCycler according to manufacturer instructions. Primers (20mers) were used at a final concentration of […], and 45 cycles were used.

PEP mRNA = PEP mRNA level in DHT treated LNCaP cells by real time PCR; assay type: cell-based, human; conditions: 100 nM DHT
Method: as §3

NAPH mRNA = NAPH mRNA level in DHT treated LNCaP cells by real time PCR; assay type: cell-based, human; conditions: 100 nM DHT
Method: as §3

[4] = tested on: DPP-like activity in LNCaP soluble fraction; assay: Inhibition of DPP-like activity with isoleucine thiozolidide, fp-PEG-Tamra labeling, LNCaP soluble fraction; assay type: biochemical, human; conditions: for Reaction of fp-PEG-Tamra probe with DPP-like protein (words): LNCaP lysate preincubated with IT, 97 kDa band
Method: (§4) . Each lysate was pre-incubated with 100 TM IT for 20 min at RT. Residual DPP-like activity was evaluated by treatment with 2 TM fp-PEG-Tamma, as described above, followed by resolution with 10% SDS-PAGE and comparison to samples not treated with IT. Inhibition of DPP activity was quantified by measuring the fluorescence intensity of the conjugate between fp-PEG-TAMRA and the DPP. The activity of a non-DPP enzyme was used to standardize the specific effects if IT.
(§5) One member of this family, DPP-IV, has been investigated as a target in type II diabetes. As a result of those investigations, several peptidic antagonists of DPP IV have been synthesized (Pederson et al., Diabetes 47:1253-58; 1998; Pauly et al., Metabolism 48(3):385-389, 1999). […]. The sensitivity of enzyme activity to IT was tested in the soluble fractions of the LNCaP, DU-145, and PC-3 prostate cancer cells lines. Each lysate was pre-incubated with 100 TM IT for 20 min at RT. Residual DPP-like activity was evaluated by the addition of 2 TM fp-PEG-Tamra, followed by resolution with 10% SDS-PAGE and comparison to the non-treated samples. […]. […] Specific labeling was determined by comparison to preheated controls.
In each of the three prostate cancer cell lines, a novel protein with homology to DPP was identified using MS/MS. The similarity to DPP was based on fold and function assignment of the corresponding cDNA and its cognate protein (Zhang et al., Prot. Sci. 8:1104-1115, 1999). […].

[5] = tested on: non-DPP proteins (other serine hydrolase activity); assay: Specificity of IT: fp-PEG-Tamra labeling of non-DPP serine hydrolases in prostate cancer cell lysates; assay type: biochemical, human; conditions: soluble fractions of LNCaP, DU-145, PC-3, 100 TM IT
Method: as §4, §5
In each of the three prostate cancer cell lines, a novel protein with homology to DPP was identified using MS/MS. […]

[6] = listed as isoleucine thiazolidide

## C/C=C/C/C=C/CCC(=O)[C@H]1O[C@H]1C(N)=O [cerulenin]
Tumor cells in culture
  Cytotoxicity to cancer cells: cytotoxic
  Apoptosis of tumor cells: induces apoptosis; also recorded: in some cases induce apoptosis
Tumor growth
  Tumor growth in nude mice: inhibit tumor growth

## C[C@]12CCC(=O)C[C@@H]1CC[C@@H]1[C@@H]2CC[C@]2(C)[C@@H](O)CC[C@@H]12 [DHT]
LNCaP cells; 0.1 nM DHT
  LNCaP cell proliferation: promoted cell proliferation
LNCaP cells; 100 nM DHT
  LNCaP cell proliferation: cell proliferation was inhibited
[1]; 0.1 nM DHT
  Change of FAS activity: increased three-fold to five-fold
[1]; 100 nM DHT
  Change of FAS activity: increased
[2]; 0.1 nM DHT
  Change of PEP activity: decreased
[2]; 100 nM DHT
  Change of PEP activity: dramatic drop
PSA; 0.1 nM DHT
  Change of PSA activity: no noticeable change
PSA; 100 nM DHT
  Change of PSA activity: increased
[3]
  Change of NAPH activity: dramatic drop
PSA mRNA; 0.1 nM DHT, six days
  Change of PSA mRNA level: increased over eleven-fold
PSA mRNA; 100 nM DHT
  Change of PSA mRNA level: large increase
PEP mRNA
  Change of PEP mRNA level: increased
NAPH mRNA
  Change of NAPH mRNA level: slightly greater than two-fold

## CC[C@H](C)[C@H](N)C(=O)N1CCSC1 [IT, isoleucine thiazolidide]
[4]
  Reaction of fp-PEG-Tamra probe with DPP-like protein (words): inhibited
[4]; [6]
  Reaction of fp-PEG-Tamra probe with DPP-like protein (words): dramatically reduced
[4]; LNCaP soluble fraction, pre-incubated with 100 TM IT 20 min RT, 2 TM fp-PEG-Tamra
  DPP-like activity inhibited: 63%
[5]
  Inhibition of non-DPP proteins / other serine hydrolase activity: No inhibition; also recorded: no other serine hydrolase activity was reduced
[5]; [6]
  Inhibition of non-DPP proteins / other serine hydrolase activity: No other enzyme activities were inhibited

## C=C1C(=O)OC(CCCCCCCC)C1C(=O)O (centres unmarked) [Compound C75]
Tumor cells in culture
  Cytotoxicity to cancer cells: cytotoxic
  Apoptosis of tumor cells: in some cases induce apoptosis
